Assay results reported in patent publication US9649324B2, “Use of tylvalosin as antiviral agent” (ECO ANIMAL HEALTH LIMITED, priority 2006, dated 2017).

Assays:
HRT-18 cells = assay: Intracellular accumulation of macrolides in HRT-18 cells; format: in vitro ADME, human; settings: HRT-18 cells, 10 μg/mL antibiotic
Protocol: HRT-18 cells, in 6 cm tissue cultures dishes, were incubated in the presence of 0.5, 5 or 50 μg/mL tylvalosin. After 4 h, two dishes for each tylvalosin concentration and two dishes without antibiotic were removed from the incubator. A sample of medium (about 1 mL) was removed, placed in a labelled Eppendorf tube and stored at −20° C. The rest of the medium was then removed. Each of the cell monolayers was washed twice in PBS, using approximately 5 mL for each wash. The plunger from a 2 mL plastic syringe was used to gently scrape off the cells. PBS (500 μL) was added to the dish and the cells gently removed into this medium, using a micropipette. The sample was then placed in an Eppendorf tube and centrifuged at 8000×g in a bench centrifuge (Biofuge pico, Heraeus instruments) for 13 sec. An obvious cell pellet formed. The supernatant was removed using a micropipette and the cell material was stored at −20° C. in a labelled Eppendorf tube. After approximately 24 h the remaining tissue culture dishes were removed from the incubator and treated as described above for the 4 h samples. All the samples, including the 4 h samples, were then stored at −70° C.
HRT-18 cells were prepared as described above and used at passage 42. Stock solutions of antibiotics (either tylvalosin, tylosin or tilmicosin) were diluted in growth media and 10 μg/mL each antibiotic was added to the confluent cell monolayers. The cells were incubated at 37° C. in a 5% CO2 atmosphere for either 4 h or 24 h. The media and cells were harvested and tested for antibiotic, as described above.
(§1) All the supernatant and cell samples were transported frozen (at approximately −20° C.) to York Bioanalytical Solutions (York, England) for analysis. Briefly, 0.25 g of buffer (RPMI medium containing 10% FCS) was weighed into a polypropylene tube. A 50 μL volume of the appropriate working solution was added to the quality control (QC) samples. Methanol (50 μL) was added to each blank sample used for preparation of calibration standards, recovery samples and reagent blanks. A 2.5 mL volume of 0.1 M phosphate buffer was added to each sample, vortex mixed for approximately 1 min and then centrifuged at 3220×g for 10 min at 4° C.
(§2) For the liquid-liquid clean-up phase, an aliquot (100 μL) of the supernatant was transferred to a polypropylene tube. The pH was adjusted to pH 8-8.5 by the addition of 0.1 M NaOH, and vortex mixed. Ethyl acetate (5 mL) was added and after capping, the whole mixture was shaken for 10 min and then centrifuged at 3220×g for 10 min at 4° C.
(§3) Ammonium acetate (20 mM; pH native)—formic acid, 1000:3, v/v (100 μL) was added to each well in a 2 mL polypropylene collection plate. An aliquot of the ethyl acetate mixture (100 μL) was transferred to the polypropylene collection plate and evaporated under nitrogen (40° C.) until the ethyl acetate was fully evaporated whilst the ammonium acetate remained. Methanol (100 μL) was added to each well, excluding the calibration standards.
(§4) To each well containing a calibration standard, 100 μL of the appropriate calibration working solution was added. Samples were then vortex mixed for at least 10 min and submitted for liquid chromatography with tandem mass spectrometric analysis. The method stated was applicable to the samples of media (and the calibration standards and quality control samples).
(§5) For the cells, the sample tubes were weighed, and 100 μL of acetonitrile was added. The samples were vortex mixed for 10 sec, then centrifuged at 10285×g at 4° C. for 5 min. The sample was transferred to a polypropylene tube. The original sample tube was washed with 0.1 M phosphate buffer (1 mL). This was transferred to the polypropylene tube. A second wash of 1 mL was made, then a final wash of 0.5 mL. The polypropylene tube was now at the same stage as the end of the liquid extraction, but with the cells present rather than media. This was then taken through the sample preparation as described above. […]

pig white blood cells = assay: Intracellular accumulation in pig white blood cells; format: in vitro ADME
Protocol: (§6) Pig blood was collected in Heparin-coated BD vacutainers (6). 20 mL of blood and 30 mL of phosphate buffered saline (PBS) were mixed in a 50 mL conical centrifuge tube. This was repeated in order to obtain 3 such tubes. The mixtures were centrifuged for 10 min at 2050×g. The white blood cells, together with some red blood cells below, were harvested into a 50 mL conical centrifuge tube. PBS was added to about 50 mL. A 63% solution of Percoll was made as follows: 6.3 mL Percoll (Sigma), 1.0 mL 1.5 M NaCl, 2.7 mL H2O. 10 mL of 63% Percoll was added to each of two 50 mL conical centrifuge tubes. 25 mL of the resuspended white blood cells were carefully layered on top of the each of the Percoll solutions. A sharp interface was produced. The material was centrifuged at 3000×g for 10 min. […] The white blood cells were harvested in PBS (50 mL) and centrifuged at 500×g for 10 min. The cell pellet was resuspended in medium (Glasgow minimum essential medium containing penicillin and streptomycin). A viable cell count was made using trypan blue. The same method used for isolation of pig WBCs was used for the chicken WBCs, with the exception that heparin (100 I.U./mL) was prepared and mixed with an equal volume of chicken whole blood.
Cells were incubated with 10 mg/mL of each antibiotic. All tubes were placed on a rotary mixing machine, at 37° C. Supernatant and cell samples were harvested at the times described in the figure legends. Duplicate samples were used for each antibiotic for each time point.
as §1, §2, §3, §4, §5

LLC-PK1 cells = assay: Intracellular accumulation in pig kidney epithelial cells; format: in vitro ADME; settings: LLC-PK1, 10 μg/mL
Protocol: LLC-PKI cells in 6 cm^2 plastic tissue culture dishes were incubated with 10 μg/mL of the different macrolides. Cells and medium were harvested as described above at 30, 75 and 120 min.
as §1, §2, §3, §4
(§7) For the cells, the sample tubes were weighed, and 100 μL of acetonitrile was added. The samples were vortex mixed for 10 sec, then centrifuged at 10285×g at 4° C. for 5 min. The sample was transferred to a polypropylene tube. The original sample tube was washed with 0.1 M phosphate buffer (1 mL). This was transferred to the polypropylene tube. A second wash of 1 mL was made, then a final wash of 0.5 mL. The polypropylene tube was now at the same stage as the end of the liquid extraction, but with the cells present rather than media. This was then taken through the sample preparation as described above. The original sample tubes were allowed to dry (i.e. any remaining solvent evaporated off) and were then reweighed to determine the weight of cells in the sample, to allow the concentration per gram of cells to be determined.

[1] = system: chicken white blood cells; assay: Intracellular accumulation in chicken white blood cells; format: in vitro ADME; settings: chicken white blood cells, 10 μg/mL
Protocol: as §6
All tubes were placed on a rotary mixing machine, at 37° C. Supernatant and cell samples were harvested at the times described in the figure legends. Duplicate samples were used for each antibiotic for each time point.
as §1, §2, §3, §4, §5

Caco-2 cells = assay: Intracellular accumulation and trans-epithelial transport in polarised Caco-2 cells; format: in vitro ADME, human; settings: Caco-2, 10 μg/mL, apical administration
Protocol: Caco-2 cells were seeded at a density of 0.8×10^6 cells per well of a Transwell Clear filter 6 well plate, 0.4 μm pore size. The cells were incubated with 2 mL medium in both apical and basolateral chambers. This medium was replaced every 2 days for 10-14 days. Transepithelial resistance was measured using Millicell ERS apparatus (Millipore) at day 7, 10 and/or 14 in order to identify when the cells had become polarised. Readings of >1000 Ω were indicative of polarised cells. […]
as §1, §2, §3, §4, §7

[2] = system: VR2332 (US strain of PRRSV); assay: VR2332 (US strain of PRRSV) entry assay in MA104 cells (Example 10); settings: 4 h pretreatment, moi 10, overnight
PRRSV = settings: has been shown; cited from earlier work

With `CC[C@H]1OC(=O)C[C@@H](O)[C@H](C)[C@@H](O[C@@H]2O[C@H](C)[C@@H](O)[C@H](N(C)C)[C@H]2O)[C@@H](CCN2C[C@H](C)C[C@H](C)C2)C[C@@H](C)C(=O)/C=C/C(C)=C/[C@@H]1CO[C@@H]1O[C@H](C)[C@@H](O)[C@@H](OC)[C@H]1OC` (single isomer, unassigned) [tilmicosin, reference compound] the average intracellular concentration (HRT-18 cells; 4 h) was 7.24 μg/mg cells, the “intracellular:extracellular ratio” value (HRT-18 cells; 4 h) was 1.32 fold and the average intracellular concentration (HRT-18 cells; 24 h) was 32.45 μg/mg cells. The “intracellular:extracellular ratio” value (HRT-18 cells; 24 h) was 4.64 fold, the average intracellular concentration (pig white blood cells; 10 min) was 31.25 μg/mg cells and the “average intracellular:extracellular ratio (IC:EC)” value (pig white blood cells; 10 min) was 4.33. The “average intracellular:extracellular ratio (IC:EC)” value (pig white blood cells; 10 min, listed as Tilmicosin) was 4, the intracellular concentration (pig white blood cells; 20 min) was 36 μg/mg cells and the average intracellular concentration (LLC-PK1 cells; 75 min) was 4.98 μg/mg cells. For the same compound, the “intracellular:extracellular ratio” value (LLC-PK1 cells; 120 min) was 1.7, the “toxicity in cell culture assays of antiviral potency” value (cell culture) was “much more toxic than tylvalosin” and the average intracellular concentration ([1]; 15 min) was 37.1 μg/mg cells. The intracellular concentration ([1]; 60 min) was 71.3 μg/mg cells, the average intracellular concentration (Caco-2 cells; 120 min) was 8.6 μg/mg cells and the average intracellular concentration (Caco-2 cells; 240 min) was 16.05 μg/mg cells. For the same compound, the “basolateral chamber content as average % of the apical chamber value” (Caco-2 cells; 240 min) was 1.08%, the “intracellular:extracellular ratio (fold concentration)” value (Caco-2 cells; 240 min) was 2.5 fold and the “inhibition of VR2332 infection” value [2] was “partial inhibition”. For the same compound, the “effect on PRRSV” value (PRRSV) was “effective”.
